Source: patent publication US8716292B2, “Riminophenazines with 2-(heteroaryl)amino substituents and their anti-microbial activity” (priority 2010, dated 2014)
Converted amounts (≈) assume the structure as drawn.

Each compound was assayed on Mycobacterium tuberculosis H37Rv strains (assay: In vitro assay for antimicrobial susceptibility (microplate Alamar blue MIC)). Details: Mycobacterium tuberculosis, H37RV, 7H9, Alamar blue, inhibition ≧90%; read-out: MIC (μg/mL) against H37Rv.
Format: cell-based
`COC1CCC(/N=c2\cc3n(-c4ccc(F)cc4)c4ccccc4nc-3cc2Nc2ncccn2)CC1` (stereo not shown) [TBI-1080, 5-(4-Fluorophenyl)-3-(4-methoxycyclohexyl)imino-2-(pyrimidin-2-yl)amino-3,5-dihydrophenazine] gave an MIC of 0.029 µg/mL (≈ 0.0586 µM).
`CC(C)/N=c1\cc2n(-c3ccc(F)cc3)c3ccccc3nc-2cc1Nc1ncccc1[N+](=O)[O-]` [TBI-1052, 5-(4-Fluorophenyl)-3-(1-methylethyl)imino-2-(3-nitro-2-pyridyl)amino-3,5-dihydrophenazine] was tested, and the MIC was 0.022 µg/mL (≈ 0.047 µM).
For `N#Cc1cccnc1Nc1cc2nc3ccccc3n(-c3ccc(F)cc3)c-2c/c1=N\C1CCOCC1` [TBI-1086, 5-(4-Fluorophenyl)-3-(4-tetrahydropyranyl)imino-2-(3-cyano-2-pyridyl)amino-3,5-dihydrophenazine], the MIC was 0.04 µg/mL (≈ 0.0815 µM).
`O=[N+]([O-])c1cccnc1Nc1cc2nc3ccccc3n(-c3ccc(F)cc3)c-2c/c1=N\C1CCOCC1` [TBI-1088, 5-(4-Fluorophenyl)-3-(4-tetrahydropyranyl)imino-2-(3-nitro-2-pyridyl)amino-3,5-dihydrophenazine] was tested, and the MIC was 0.028 µg/mL (≈ 0.0548 µM).

Same assay, conditions: Mycobacterium tuberculosis, H37RV, in vitro, Mycobacterium tuberculosis H37Rv strains; read-out: MIC (μg/mL) against H37Rv
In the case of `Cc1ncccc1Nc1cc2nc3ccccc3n(-c3cccc(OC(F)(F)F)c3)c-2c/c1=N\C1CCOCC1` [TBI-1035, 5-(3-Trifluoromethoxyphenyl) 3-(4-tetrahydropyranyl)imino-2-(2-methyl-3-pyridyl)amino-3,5-dihydrophenazine], the MIC is reported as 0.062 µg/mL (≈ 0.114 µM).
Compound `Cc1ccc(Nc2cc3nc4ccccc4n(-c4ccccc4)c-3c/c2=N\C2CCOCC2)cn1` [TBI-070, 5-Phenyl-3-(4-tetrahydropyranyl)imino-2-(6-methyl-3-pyridyl)amino-3,5-dihydrophenazine] has an MIC of 0.08 µg/mL (≈ 0.173 µM).
Work on `Cc1ccc(Nc2cc3nc4ccc(F)cc4n(-c4ccc(Cl)cc4)c-3c/c2=N\C(C)C)cn1` [TBI-914, 7-Fluoro-5-(4-chlorophenyl)-3-(1-methylethyl)imino-2-(6-methyl-3-pyridyl)amino-3,5-dihydrophenazine] yielded an MIC greater than 0.5 µg/mL.
With `Cc1ccc(-n2c3c/c(=N\C(C)C)c(Nc4ccc(C)nc4)cc-3nc3ccccc32)cc1` [TBI-315, 5-(4-Methylphenyl)-3-(1-methylethyl)imino-2-(6-methyl-3-pyridyl)amino-3,5-dihydrophenazine] the MIC was 0.057 µg/mL (≈ 0.131 µM).
With `CC(C)/N=c1\cc2n(-c3ccc(F)cc3)c3ccccc3nc-2cc1Nc1cccnc1` [TBI-679, 5-(4-Fluorophenyl)-3-(1-methylethyl)imino-2-(3-pyridyl)amino-3,5-dihydrophenazine] the MIC was 0.03 µg/mL (≈ 0.0708 µM).
For `Clc1ccc(-n2c3c/c(=N\C4CC4)c(Nc4cccnc4)cc-3nc3ccccc32)cc1Cl` [TBI-343, 5-(3,4-Dichlorophenyl)-3-cyclopropylimino-2-(3-pyridyl)amino-3,5-dihydrophenazine], the MIC was 0.014 µg/mL (≈ 0.0296 µM).
Work on `Cc1ccc(Nc2cc3nc4ccccc4n(-c4ccc(F)cc4)c-3c/c2=N\C2CCSCC2)cn1` [TBI-90B, 5-(4-Fluorophenyl)-3-(4-tetrahydrothiopyranyl)imino-2-(6-methyl-3-pyridyl)amino-3,5-dihydrophenazine] yielded an MIC of 0.397 µg/mL (≈ 0.801 µM).
For `Cc1cncc(Nc2cc3nc4ccccc4n(-c4ccccc4)c-3c/c2=N\C2CCC(O)CC2)c1` (stereo not shown) [TBI-085, 5-Phenyl-3-(4-hydroxycyclohexyl)imino-2-(5-methyl-3-pyridyl)amino-3,5-dihydrophenazine], the MIC was 0.5 µg/mL (≈ 1.05 µM).
`COc1ncccc1Nc1cc2nc3ccccc3n(-c3cccc(OC(F)(F)F)c3)c-2c/c1=N\C1CCC(OC)CC1` (stereo not shown) [TBI-1039, 5-(3-Trifluoromethoxyphenyl)-3-(4-methoxycyclohexyl)imino-2-(2-methoxy-3-pyridyl)amino-3,5-dihydrophenazine] showed an MIC of 0.059 µg/mL (≈ 0.1 µM).
`COC1CCC(/N=c2\cc3n(-c4ccc(Cl)c(Cl)c4)c4cc(F)ccc4nc-3cc2Nc2ccc(C)nc2)CC1` (stereo not shown) [TBI-897, 7-Fluoro-5-(3,4-dichlorophenyl)-3-(4-methoxycyclohexyl)imino-2-(6-methyl-3-pyridyl)amino-3,5-dihydrophenazine] was tested, and the MIC was 0.25 µg/mL (≈ 0.434 µM).
Work on `COc1ncccc1Nc1cc2nc3ccccc3n(-c3ccc(Cl)cc3Cl)c-2c/c1=N\C1CCC1` [TBI-893, 5-(2,4-Dichlorophenyl)-3-cyclobutylimino-2-(2-methoxy-3-pyridyl)amino-3,5-dihydrophenazine] yielded an MIC of 0.06 µg/mL (≈ 0.116 µM).
`CC(=O)Nc1ccc(Nc2cc3nc4ccccc4n(-c4ccc(C(F)(F)F)cc4)c-3c/c2=N\C2CCOCC2)cn1` [TBI-712, 5-(4-Trifluoromethylphenyl)-3-(4-tetrahydropyranyl)imino-2-(6-acetamino-3-pyridyl)amino-3,5-dihydrophenazine] was tested, and the MIC was 0.158 µg/mL (≈ 0.276 µM).
Compound `Cc1ccc(-n2c3c/c(=N\C4CCC4)c(Nc4cccnc4C)cc-3nc3ccccc32)cc1` [TBI-347, 5-(4-Methylphenyl)-3-cyclobutylimino-2-(2-methyl-3-pyridyl)amino-3,5-dihydrophenazine] has an MIC of 0.042 µg/mL (≈ 0.0943 µM).
`COc1ncccc1Nc1cc2nc3ccccc3n(-c3ccc(Br)cc3)c-2c/c1=N\C1CCOCC1` [TBI-518, 5-(4-Bromophenyl)-3-(4-tetrahydropyranyl)imino-2-(2-methoxy-3-pyridyl)amino-3,5-dihydrophenazine] showed an MIC of 0.02 µg/mL (≈ 0.0359 µM).
In the case of `Cc1ccc(Nc2cc3nc4cc(F)ccc4n(-c4ccc(Cl)c(Cl)c4)c-3c/c2=N\C(C)C)cn1` [TBI-887, 8-Fluoro-5-(3,4-dichlorophenyl)-3-(1-methylethyl)imino-2-(6-methyl-3-pyridyl)amino-3,5-dihydrophenazine], the MIC is reported as 0.062 µg/mL (≈ 0.122 µM).
For `FC(F)(F)c1ccc(-n2c3c/c(=N\CCN4CCOCC4)c(Nc4cccnc4)cc-3nc3ccccc32)cc1` [TBI-690, 5-(4-Trifluoromethylphenyl)-3-(2-morpholinoethyl)imino-2-(3-pyridyl)amino-3,5-dihydrophenazine], the MIC was 0.125 µg/mL (≈ 0.23 µM).
Work on `COc1ncccc1Nc1cc2nc3ccccc3n(-c3cccc(Cl)c3)c-2c/c1=N\C1CCOCC1` [TBI-822, 5-(3-Chlorophenyl)-3-(4-tetrahydropyranyl)imino-2-(2-methoxy-3-pyridyl)amino-3,5-dihydrophenazine] yielded an MIC of 0.125 µg/mL (≈ 0.244 µM).
Compound `COC1CCC(N=c2cc3n(-c4ccc(C(F)(F)F)cc4)c4ccccc4nc-3cc2Nc2cccnc2C)CC1` (stereo not shown) [TBI-706, 5-(4-Trifluoromethylphenyl)-3-(4-methoxycyclohexyl)imino-2-(2-methyl-3-pyridyl)amino-3,5-dihydrophenazine] has an MIC of 0.011 µg/mL (≈ 0.0197 µM).
Compound `Cc1ccc(Nc2cc3nc4ccccc4n(-c4ccccc4)c-3c/c2=N\C2CCN(CC(C)C)CC2)cn1` [TBI-068, 5-Phenyl-3-(N-isobutyl-4-piperidyl)imino-2-(6-methyl-3-pyridyl)amino-3,5-dihydrophenazine] has an MIC of 0.156 µg/mL (≈ 0.302 µM).
`Cc1ccc(-n2c3c/c(=N\CCN4CCOCC4)c(Nc4cccnc4C)cc-3nc3ccccc32)cc1` [TBI-324, 5-(4-Methylphenyl)-3-(2-morpholinoethyl)imino-2-(2-methyl-3-pyridyl)amino-3,5-dihydrophenazine] gave an MIC of 0.12 µg/mL (≈ 0.238 µM).
Work on `COc1ncccc1Nc1cc2nc3ccccc3n(-c3ccc(Cl)cc3)c-2c/c1=N\CCN1CCOCC1` [TBI-439, 5-(4-Chlorophenyl)-3-(2-morpholinoethyl)imino-2-(2-methoxy-3-pyridyl)amino-3,5-dihydrophenazine] yielded an MIC of 0.06 µg/mL (≈ 0.111 µM).
Work on `COc1ncccc1Nc1cc2nc3ccc(F)cc3n(-c3ccc(OC(F)(F)F)cc3)c-2c/c1=N\C1CC1` [TBI-857] yielded an MIC of 0.045 µg/mL (≈ 0.084 µM).
With `Cc1ccc(Nc2cc3nc4ccccc4n(-c4ccc(OC(F)(F)F)cc4)c-3c/c2=N\C2CCOCC2)cn1` [TBI-950, 5-(4-Trifluoromethoxyphenyl)-3-(4-tetrahydropyranyl)imino-2-(6-methyl-3-pyridyl)amino-3,5-dihydrophenazine] the MIC was 0.035 µg/mL (≈ 0.0642 µM).
`Cc1ccc(-n2c3c/c(=N\CCN4CCOCC4)c(Nc4ccc(C)nc4)cc-3nc3ccccc32)cc1` [TBI-318, 5-(4-Methylphenyl)-3-(2-morpholinoethyl)imino-2-(6-methyl-3-pyridyl)amino-3,5-dihydrophenazine] was tested, and the MIC was 0.087 µg/mL (≈ 0.172 µM).
In the case of `COc1ncccc1Nc1cc2nc3ccccc3n(-c3ccccc3OC(F)(F)F)c-2c/c1=N\C1CCCCC1` [TBI-1047, 5-(2-Trifluoromethoxyphenyl)-3-cyclohexylimino-2-(2-methoxy-3-pyridyl)amino-3,5-dihydrophenazine], the MIC is reported as 0.465 µg/mL (≈ 0.831 µM).
`Cc1ncccc1Nc1cc2nc3ccccc3n(-c3ccccc3)c-2c/c1=N\C1CCCCC1` [TBI-077, 5-Phenyl-3-cyclohexylimino-2-(2-methyl-3-pyridyl)amino-3,5-dihydrophenazine] gave an MIC of 0.016 µg/mL (≈ 0.0348 µM).
For `Cc1ccc(-n2c3c/c(=N\C4CCCCC4)c(Nc4ccc(C)nc4)cc-3nc3ccccc32)cc1` [TBI-306, 5-(4-Methylphenyl)-3-cyclohexylimino-2-(6-methyl-3-pyridyl)amino-3,5-dihydrophenazine], the MIC was 0.106 µg/mL (≈ 0.224 µM).
`COc1ncccc1Nc1cc2nc3cc(C#N)ccc3n(-c3ccc(F)cc3)c-2c/c1=N\C1CCOCC1` [TBI-1066, 8-Cyano-5-(4-fluorophenyl)-3-(4-tetrahydropyranyl)imino-2-(2-methoxy-3-pyridyl)amino-3,5-dihydrophenazine] gave an MIC greater than 6.64 µg/mL.
`Cc1ncccc1Nc1cc2nc3ccccc3n(-c3ccc(Br)cc3)c-2c/c1=N\C1CCCCC1` [TBI-508, 5-(4-Bromophenyl)-3-cyclohexylimino-2-(2-methyl-3-pyridyl)amino-3,5-dihydrophenazine] gave an MIC of 0.021 µg/mL (≈ 0.039 µM).
`Cc1ccc(-n2c3c/c(=N\C4CCOCC4)c(Nc4cccnc4)cc-3nc3ccccc32)cc1` [TBI-303, 5-(4-Methylphenyl)-3-(4-tetrahydropyranyl)imino-2-(3-pyridinyl)amino-3,5-dihydrophenazine] was tested, and the MIC was 0.03 µg/mL (≈ 0.065 µM).
`CC(=O)Nc1ccc(-n2c3c/c(=N\C(C)C)c(Nc4ccc(C)nc4)cc-3nc3ccccc32)cc1` [TBI-1228, 5-(4-Acetamidophenyl)-3-(1-methylethyl)imino-2-(6-methyl-3-pyridyl)amino-3,5-dihydrophenazine] gave an MIC of 2.4 µg/mL (≈ 5.03 µM).
With `Cc1ccncc1Nc1cc2nc3ccccc3n(-c3ccc(F)cc3)c-2c/c1=N\C1CC1` [TBI-940, 5-(4-Fluorophenyl)-3-cyclopropylimino-2-(4-methyl-3-pyridyl)amino-3,5-dihydrophenazine] the MIC was 0.062 µg/mL (≈ 0.142 µM).
`COc1ncccc1Nc1cc2nc3ccc(F)cc3n(-c3ccc(Cl)cc3)c-2c/c1=N\C1CCCCC1` [TBI-927, 7-Fluoro-5-(4-chlorophenyl)-3-cyclohexylimino-2-(2-methoxy-3-pyridyl)amino-3,5-dihydrophenazine] gave an MIC of 0.04 µg/mL (≈ 0.0758 µM).
